pEC50, pIC50: −log10 of the molar value. Counter-ions that a name gives are not always drawn. Like-named read-outs stand apart in the source and are kept apart here.
Key:
AMO-1 cells = test: Antiproliferation assay AMO-1 (Assay 7); type: cell-based
How it was run: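 Anti-proliferative effect was measured by CellTiter-Glo ATP luminescence after 72 h compound exposure at 37° C, following overnight plating. IC50s were derived using a parallel time-zero plate and DMSO-treated controls as reference points.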

BCL-2 = BCL-2 (Homo sapiens (Human), UniProt P10415); test: Protein-protein interaction assay BCL-2/Bad BH3 peptide (BCL-2 assay, TR-FRET); type: binding; conditions: read-out: BCL-2 Assay IC50 (median)
Protocol: Assay 3 Protein-Protein Interaction Assay: BCL-2/Bad BH3 Peptide (BCL-2 Assay)
The dose-dependent inhibition by the compounds described in this invention of the interaction between BCL-2 and the BH3 domain of Bad (both human) was determined using a steady state binding competition assay with time-resolved fluorescence energy transfer (TR-FRET) readout. For that purpose BCL-2 (amino acids 1-211, C-terminal fused to a hexahistidine (6×His) tag (SEQ ID 5) and a synthetic Bad BH3-derived peptide of sequence Biotin-PEG2-PEG2-[…]-Nle-[…]-amide (SEQ ID 4) served as protein receptor and tracer ligand respectively. The recombinant BCL-2 protein (expressed in E. coli) was purchased from BPS Bioscience (San Diego, Calif., USA). The Bad BH3-derived peptide can be obtained from e.g. Biosyntan (Berlin, Germany).
In the assay 11 different concentrations of each compound (0.1 nM, 0.33 nM, 1.1 nM, 3.8 nM, 13 nM, 44 nM, 0.15 μM, 0.51 μM, 1.7 μM, 5.9 μM and 20 μM) were typically measured as duplicates in the same microtiter plate. For that, 100-fold concentrated DMSO solutions were prepared by serial dilutions (1:3.4) of a 2 mM stock solution in a clear, 384-well microtiter plate (Greiner Bio-One, Frickenhausen, Germany). From there, 50 nl were transferred in a dark test plate (Greiner Bio-One, Frickenhausen, Germany). The assay was initiated by addition of 2 μL of a 2,5-fold concentrated His-BCL-2 solution (usually for a 1 nM end concentration in 5 μL reaction volume) in aqueous assay buffer [50 mM Tris/HCl pH 7, 100 mM sodium chloride (NaCl), 50 mM potassium fluoride (KF), 0.005% Tween-20, 2 mM DTT, 0.1% bovine gamma globulin (BGG)] to the compounds in the assay plate. This was followed by a 10-minute incubation step at 22° C. for pre-equilibration of the putative complex between His-BCL-2 and the compounds. After that, 3 μL of a 1.67-fold concentrated solution (in assay buffer) consisting of Bad BH3-derived peptide (1 nM end concentration) and TR-FRET detection reagents [1.67 nM anti-His-Eu cryptate and 1.67 nM streptavidin-XL665 (both from Cisbio Bioassays, Codolet, France)], were added.
The mixture was incubated in the dark for one hour at 22° C. and then overnight at 4° C. The formation of BCL-2/Bad complexes was determined by measuring the resonance energy transfer of the anti-His-Eu-cryptate antibody to the streptavidin-XL665 present in the reaction. For that purpose, the fluorescence emission at 620 nm and 665 nm after excitation at 330-350 nm was measured in a TR-FRET measuring instrument, for instance a Rubystar or a Pherastar (both from BMG Lab Technologies, Offenburg, Germany) or a Viewlux (Perkin-Elmer). The ratio of the emission at 665 nm and at 622 nm was used as indicator of the amount of BCL-2/Bad complexes present.
The resulting data (ratio) were normalized, taking 0% inhibition as the mean value of control measurements (usually 32 data points) where all reagents were included. In this case 50 nl DMSO were used instead of compounds. […] IC50 values were determined by regression analysis based on a 4 parameter equation (minimum, maximum, IC50, Hill; Y=Max+(Min−Max)/(1+(X/IC50)^Hill) using the Screener Software (Genedata).

SUDHL5 cells [1] = test: Induction of caspase-3/7 activity in SUDHL5 cells (Assay 4); type: cell-based
How it was run: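 Read-out: Caspase-Glo 3/7 luminescence (1 h, 37 °C) after cells, plated overnight, were treated with compounds for 3 h at 37 °C. Signal corrected for cell-free medium background and expressed relative to DMSO control mean.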

SUDHL5 cells [2] = test: Induction of cytotoxicity in SUDHL5 cells (Assay 6); type: cell-based; conditions: 5 h, CellTiter-Glo, read-out: Cytotox SUDHL5 IC50 (median)
How it was run: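 Following overnight seeding at 37 °C, cells are treated with compound for 5 h, after which CellTiter-Glo reagent is added and luminescence measured following a 15 min room-temperature shake.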

[3] = 72 h, CellTiter-Glo, read-out: Antiproli AMO-1 IC50 median
[4] = caspase-3/7 induction, 3 h, read-out: Caspase SUDHL5 EC50 (median)
[5] = read-out: Antiproli AMO-1 IC50 median, 72 h, CellTiter-Glo
[6] = read-out: Caspase SUDHL5 EC50 (median), caspase-3/7 induction, 3 h
[7] = Homo sapiens, AMO1, 72 h, 72 h, CellTiter-Glo, read-out: Antiproli AMO-1 IC50 median
[8] = Homo sapiens, SU-DHL-5, 3 h, caspase-3/7 induction, 3 h, read-out: Caspase SUDHL5 EC50 (median)

Chain of BCL-2 (P10415 1-211): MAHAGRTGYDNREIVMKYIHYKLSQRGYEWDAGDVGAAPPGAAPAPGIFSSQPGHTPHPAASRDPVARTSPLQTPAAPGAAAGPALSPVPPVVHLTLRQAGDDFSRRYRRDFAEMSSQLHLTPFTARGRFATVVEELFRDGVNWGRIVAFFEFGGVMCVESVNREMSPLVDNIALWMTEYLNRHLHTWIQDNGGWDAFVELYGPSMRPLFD

Row | SMILES | pIC50 (AMO-1 cells; [3]) | pIC50 (BCL-2) | pEC50 (SUDHL5 cells [1]; [4]) | pIC50 (SUDHL5 cells [2]) | pIC50 (AMO-1 cells; [5]) | pEC50 (SUDHL5 cells [1]; [6]) | pIC50 (AMO-1 cells; [7]) | pEC50 (SUDHL5 cells [1]; [8]) | pIC50 (SUDHL5 cells [2]; Homo sapiens, SU-DHL-5, 5 h) | pIC50 (AMO-1 cells; Homo sapiens, AMO1, 72 h, read-out: Antiproli AMO-1 IC50 median, 72 h, CellTiter-Glo) | pEC50 (SUDHL5 cells [1]; Homo sapiens, SU-DHL-5, 3 h, read-out: Caspase SUDHL5 EC50 (median), caspase-3/7 induction, 3 h)
1 | CCc1c2c(nn1C)C(CCN1CCOCC1)OCCCCn1c(C(=O)O)c(CCCOc3cccc4cc(F)ccc34)c3ccc(F)c-2c31 (single isomer, unassigned; enantiomer 2) [Example 51, (−)-3-ethyl-4-fluoro-7-{3-[(6-fluoronaphthalen-1-yl)oxy]propyl}-2-methyl-15-[2-(morpholin-4-yl)ethyl]-2,10,11,12,13,15-hexahydropyrazolo[4′,3′:9,10][1,6]oxazacycloundecino[8,7,6-hi]indole-8-carboxylic Acid (Enantiomer 2)] | 4.97 | < 4.70 | 5.30 | 5.47 | – | – | – | – | – | – | –
2 | CCc1c2c(nn1C)C(CC(C)(C)O)OCCCCn1c(C(=O)O)c(CCCOc3cccc4cc(F)ccc34)c3ccc(Cl)c-2c31 (single isomer, unassigned; enantiomer 1) [Example 53, (+)-4-chloro-3-ethyl-7-{3-[(6-fluoronaphthalen-1-yl)oxy]propyl}-15-(2-hydroxy-2-methylpropyl)-2-methyl-2,10,11,12,13,15-hexahydropyrazolo[4′,3′:9,10][1,6]oxazacycloundecino[8,7,6-hi]indole-8-carboxylic Acid—N-ethylethanamine Salt (Enantiomer 1)] | – | 4.77 | – | 7.02 | 6.73 | 7.12 | – | – | – | – | –
3 | CCc1c2c(nn1C)C(CCN1CCOCC1)OCCCCn1c(C(=O)O)c(CCCOc3cccc4cc(F)ccc34)c3ccc(F)c-2c31 (single isomer, unassigned; enantiomer 1) [Example 50, (+)-3-ethyl-4-fluoro-7-{3-[(6-fluoronaphthalen-1-yl)oxy]propyl}-2-methyl-15-[2-(morpholin-4-yl)ethyl]-2,10,11,12,13,15-hexahydropyrazolo[4′,3′:9,10][1,6]oxazacycloundecino[8,7,6-hi]indole-8-carboxylic Acid (Enantiomer 1)] | 7.18 | < 4.70 | 7.89 | 7.80 | – | – | – | – | – | – | –
4 | CCc1c2c(nn1C)C(CCN1CCC(F)(F)C1)OCCCCn1c(C(=O)O)c(CCCOc3cccc4cc(F)ccc34)c3ccc(Cl)c-2c31 (racemic) [Example 55, (rac)-4-chloro-(15-rac)-[2-(3,3-difluoropyrrolidin-1-yl)ethyl]-3-ethyl-7-{3-[(6-fluoronaphthalen-1-yl)oxy]propyl}-2-methyl-2,10,11,12,13,15-hexahydropyrazolo[4′,3′:9,10][1,6]oxazacycloundecino[8,7,6-hi]indole-8-carboxylic acid—2-hydroxypropane-1,2,3-tricarboxylic Acid Salt] | – | < 4.70 | – | – | – | – | 7.12 | 7.49 | 7.39 | – | –
5 | Cc1c2c(nn1C)C(CCN1CCOCC1)OCCCCn1c(C(=O)O)c(CCCOc3cccc4cc(F)ccc34)c3ccc(F)c-2c31 (single isomer, unassigned; enantiomer 1) [Example 20, 4-fluoro-7-{3-[(6-fluoronaphthalen-1-yl)oxy]propyl}-2,3-dimethyl-15-[2-(morpholin-4-yl)ethyl]-2,10,11,12,13,15-hexahydropyrazolo[4′,3′:9,10][1,6]oxazacycloundecino[8,7,6-hi]indole-8-carboxylic Acid—N-ethylethanamine (Enantiomer 1)] | – | < 4.70 | – | – | – | – | – | – | 7.48 | 7.02 | 7.54
6 | CCC1OCCCCn2c(C(=O)O)c(CCCOc3cccc4ccccc34)c3ccc(Cl)c(c32)-c2c1nn(C)c2C (racemic) [Example 25, (rac)-4-chloro-15-ethyl-2,3-dimethyl-7-{3-[(naphthalen-1-yl)oxy]propyl}-2,10,11,12,13,15-hexahydropyrazolo[4′,3′:9,10][1,6]oxazacycloundecino[8,7,6-hi]indole-8-carboxylic Acid] | – | < 4.70 | – | – | – | – | 5.18 | 5.70 | 5.55 | – | –
7 | Cc1c2c(nn1C)C(CCO)OCCCCn1c(C(=O)O)c(CCCOc3cccc4ccccc34)c3ccc(Cl)c-2c31 (single isomer, unassigned; enantiomer 1) [Example 31, (+)-4-chloro-15-(2-hydroxyethyl)-2,3-dimethyl-7-{3-[(naphthalen-1-yl)oxy]propyl}-2,10,11,12,13,15-hexahydropyrazolo[4′,3′:9,10][1,6]oxazacycloundecino[8,7,6-hi]indole-8-carboxylic Acid (Enantiomer 1)] | 6.49 | < 4.70 | 6.55 | 6.43 | – | – | – | – | – | – | –
8 | Cc1c2c(nn1C)C(CCN1CCOCC1)OCCCCn1c(C(=O)O)c(CCCOc3cccc4cc(F)ccc34)c3ccc(Cl)c-2c31 (single isomer, unassigned; enantiomer 2) [Example 18, 4-chloro-7-{3-[(6-fluoronaphthalen-1-yl)oxy]propyl}-2,3-dimethyl-15-[2-(morpholin-4-yl)ethyl]-2,10,11,12,13,15-hexahydropyrazolo[4′,3′:9,10][1,6]oxazacycloundecino[8,7,6-hi]indole-8-carboxylic Acid (Enantiomer 2)] | – | < 4.70 | – | – | – | – | 5.63 | 6.28 | 6.28 | – | –
9 | CCC1OCCCCn2c(C(=O)O)c(CCCOc3cccc4ccccc34)c3ccc(Cl)c(c32)-c2c1nn(C)c2C (single isomer, unassigned; enantiomer 1) [Example 29, (+)-4-chloro-15-ethyl-2,3-dimethyl-7-{3-[(naphthalen-1-yl)oxy]propyl}-2,10,11,12,13,15-hexahydropyrazolo[4′,3′:9,10][1,6]oxazacycloundecino[8,7,6-hi]indole-8-carboxylic Acid—N-ethylethanamine Salt (Enantiomer 1)] | – | < 4.70 | – | 5.96 | 5.36 | 6.08 | – | – | – | – | –
10 | CCc1c2c(nn1C)C(CC(C)(C)O)OCCCCn1c(C(=O)O)c(CCCOc3cccc4cc(F)ccc34)c3ccc(Cl)c-2c31 (racemic) [Example 52, (rac)-4-chloro-3-ethyl-7-{3-[(6-fluoronaphthalen-1-yl)oxy]propyl}-(15-rac)-(2-hydroxy-2-methylpropyl)-2-methyl-2,10,11,12,13,15-hexahydropyrazolo[4′,3′:9,10][1,6]oxazacycloundecino[8,7,6-hi]indole-8-carboxylic Acid] | – | 4.80 | – | – | – | – | 6.97 | 6.38 | 6.42 | – | –

— patent publication US11440923B2, “Substituted macrocyclic indole derivatives” (Bayer Aktiengesellschaft, priority 2017, dated 2022)
